{
  "source": "paper PMC3277506",
  "about": "“Extra-Renal Elimination of Uric Acid via Intestinal Efflux Transporter BCRP/ABCG2” (PLoS ONE, 2012)",
  "key": {"hMRP2": {"biological_target": "T1, hMRP2 (Homo sapiens, UniProt Q92887)", "T1 construct": "purchased GenoMembrane Inc. (Yokohama, Japan); host or cells: Sf9 cells", "T1 sequence (Q92887 whole entry)": "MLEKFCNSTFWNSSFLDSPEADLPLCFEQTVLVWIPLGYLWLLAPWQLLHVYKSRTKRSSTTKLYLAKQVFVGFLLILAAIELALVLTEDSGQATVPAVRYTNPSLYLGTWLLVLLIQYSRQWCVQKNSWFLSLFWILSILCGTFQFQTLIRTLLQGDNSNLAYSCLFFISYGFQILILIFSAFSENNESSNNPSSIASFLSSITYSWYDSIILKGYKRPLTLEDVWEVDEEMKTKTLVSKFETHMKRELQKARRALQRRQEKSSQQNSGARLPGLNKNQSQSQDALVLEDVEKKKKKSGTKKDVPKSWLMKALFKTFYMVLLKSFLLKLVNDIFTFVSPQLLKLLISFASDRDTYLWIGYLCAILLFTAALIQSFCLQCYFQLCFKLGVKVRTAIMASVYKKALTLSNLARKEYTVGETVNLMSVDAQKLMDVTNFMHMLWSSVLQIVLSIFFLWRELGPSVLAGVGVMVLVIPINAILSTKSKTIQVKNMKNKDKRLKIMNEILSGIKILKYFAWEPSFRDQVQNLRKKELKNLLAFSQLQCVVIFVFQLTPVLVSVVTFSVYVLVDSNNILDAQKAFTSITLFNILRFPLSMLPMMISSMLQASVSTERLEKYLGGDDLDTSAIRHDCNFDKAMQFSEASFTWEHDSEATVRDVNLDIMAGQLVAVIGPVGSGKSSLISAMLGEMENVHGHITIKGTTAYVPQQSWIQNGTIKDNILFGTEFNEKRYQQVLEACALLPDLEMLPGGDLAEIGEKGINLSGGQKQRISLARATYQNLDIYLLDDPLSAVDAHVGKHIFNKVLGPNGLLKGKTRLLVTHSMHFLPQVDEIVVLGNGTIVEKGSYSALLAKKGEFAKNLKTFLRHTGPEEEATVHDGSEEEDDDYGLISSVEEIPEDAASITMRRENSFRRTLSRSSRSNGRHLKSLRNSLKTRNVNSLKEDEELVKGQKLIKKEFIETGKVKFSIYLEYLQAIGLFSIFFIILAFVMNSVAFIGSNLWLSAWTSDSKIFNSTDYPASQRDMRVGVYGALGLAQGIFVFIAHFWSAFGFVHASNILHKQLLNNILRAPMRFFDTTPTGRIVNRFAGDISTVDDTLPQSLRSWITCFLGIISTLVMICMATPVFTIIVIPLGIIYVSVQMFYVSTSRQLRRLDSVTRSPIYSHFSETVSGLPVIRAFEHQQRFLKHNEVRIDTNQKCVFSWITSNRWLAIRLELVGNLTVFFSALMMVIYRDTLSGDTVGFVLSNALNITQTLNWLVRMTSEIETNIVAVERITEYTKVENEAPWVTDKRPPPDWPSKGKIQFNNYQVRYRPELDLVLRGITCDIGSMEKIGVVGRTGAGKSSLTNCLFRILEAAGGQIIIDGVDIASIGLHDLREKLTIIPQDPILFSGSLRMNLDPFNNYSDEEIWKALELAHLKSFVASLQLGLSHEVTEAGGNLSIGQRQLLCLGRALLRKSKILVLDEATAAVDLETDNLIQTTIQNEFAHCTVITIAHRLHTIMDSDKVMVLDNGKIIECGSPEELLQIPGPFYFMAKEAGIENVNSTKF", "assay": "[14C]uric acid uptake by hMRP2-expressing membrane vesicles", "format": "biochemical", "details": "[14C]uric acid 20 µM, 5 min, 37°C, 4 mM ATP or AMP", "experimental": "(§1) hBCRP/rBcrp, hMRP2/rMrp2, or hMDR1-expressing membrane vesicles prepared from Sf9 cells were purchased from GenoMembrane Inc. (Yokohama, Japan). Uptake experiments were conducted as described previously. Briefly, after a pre-incubation for 5 min at 37°C, membrane vesicles (50 µg protein/50 µL final reaction volume) were incubated for 5 min at 37°C in the presence of 4 mM ATP or AMP in assay buffer (1 M KCl, 1 M MgCl2, and 100 mM MOPS-Tris, pH 7.0) containing [^14C]uric acid (1 µCi/mL). The uptake reaction was terminated by adding 1 mL ice-cold washing buffer (1 M KCl, and 100 mM MOPS-Tris, pH 7.0) to the membrane solution, and the mixture was rapidly filtered through a nitrocellulose filter (0.45 µm pore size, Millipore, Bedford, MA). The filters were washed twice with 5 mL ice-cold washing buffer. The filters were dried and dissolved in Clearsol-I for quantitation of radioactivity."}, "rMrp2": {"biological_target": "T2, rMrp2 (Rattus norvegicus, UniProt Q63120)", "T2 construct": "purchased GenoMembrane Inc. (Yokohama, Japan); host or cells: Sf9 cells", "T2 sequence (Q63120 whole entry)": "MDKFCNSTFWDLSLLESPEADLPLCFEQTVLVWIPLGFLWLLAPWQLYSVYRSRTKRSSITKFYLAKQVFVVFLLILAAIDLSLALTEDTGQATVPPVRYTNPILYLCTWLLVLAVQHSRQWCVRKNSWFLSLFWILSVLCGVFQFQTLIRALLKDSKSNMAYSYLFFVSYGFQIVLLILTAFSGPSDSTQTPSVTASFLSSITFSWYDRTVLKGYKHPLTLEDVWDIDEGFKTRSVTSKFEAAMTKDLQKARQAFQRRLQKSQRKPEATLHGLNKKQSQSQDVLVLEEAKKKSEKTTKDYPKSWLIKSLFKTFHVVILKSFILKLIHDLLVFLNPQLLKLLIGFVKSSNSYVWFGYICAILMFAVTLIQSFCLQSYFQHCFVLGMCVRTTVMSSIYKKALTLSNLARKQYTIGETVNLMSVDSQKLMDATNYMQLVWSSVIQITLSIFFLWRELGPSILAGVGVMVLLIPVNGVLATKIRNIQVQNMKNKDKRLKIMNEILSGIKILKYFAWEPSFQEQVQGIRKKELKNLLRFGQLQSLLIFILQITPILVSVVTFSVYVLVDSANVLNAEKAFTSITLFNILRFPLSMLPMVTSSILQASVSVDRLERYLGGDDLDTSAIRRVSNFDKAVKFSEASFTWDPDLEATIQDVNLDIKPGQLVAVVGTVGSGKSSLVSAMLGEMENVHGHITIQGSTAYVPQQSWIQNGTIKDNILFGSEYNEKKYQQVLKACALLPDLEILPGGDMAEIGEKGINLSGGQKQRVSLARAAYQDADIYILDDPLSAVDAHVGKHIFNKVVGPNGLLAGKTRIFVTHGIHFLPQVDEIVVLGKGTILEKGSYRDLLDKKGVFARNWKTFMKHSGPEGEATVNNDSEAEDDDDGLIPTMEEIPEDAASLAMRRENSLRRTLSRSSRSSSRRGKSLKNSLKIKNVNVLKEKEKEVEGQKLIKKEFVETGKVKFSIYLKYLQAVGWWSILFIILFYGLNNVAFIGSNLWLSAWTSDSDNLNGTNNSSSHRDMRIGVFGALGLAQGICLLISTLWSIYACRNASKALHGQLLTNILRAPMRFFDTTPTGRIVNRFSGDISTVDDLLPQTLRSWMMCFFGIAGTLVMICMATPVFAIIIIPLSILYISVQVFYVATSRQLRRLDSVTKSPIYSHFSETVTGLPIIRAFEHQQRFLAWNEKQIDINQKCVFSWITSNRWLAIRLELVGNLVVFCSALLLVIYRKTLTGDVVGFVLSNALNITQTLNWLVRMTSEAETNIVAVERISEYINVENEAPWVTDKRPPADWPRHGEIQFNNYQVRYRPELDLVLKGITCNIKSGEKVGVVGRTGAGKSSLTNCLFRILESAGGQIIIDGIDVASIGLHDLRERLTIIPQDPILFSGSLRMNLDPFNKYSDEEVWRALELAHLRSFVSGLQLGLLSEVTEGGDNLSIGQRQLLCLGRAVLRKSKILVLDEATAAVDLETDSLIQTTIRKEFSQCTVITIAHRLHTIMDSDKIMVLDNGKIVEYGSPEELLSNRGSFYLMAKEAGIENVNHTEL", "assay": "[14C]uric acid uptake by rMrp2-expressing membrane vesicles", "format": "biochemical", "details": "[14C]uric acid 20 µM, 5 min, 37°C, 4 mM ATP or AMP", "experimental": "as §1"}, "rMdr1a": {"biological_target": "T3, rMdr1a (Rattus norvegicus, UniProt Q6PSM0)", "T3 construct": "expressed in transfected cells; host or cells: LLC-PK1 cells", "T3 sequence (Q6PSM0 1-1272)": "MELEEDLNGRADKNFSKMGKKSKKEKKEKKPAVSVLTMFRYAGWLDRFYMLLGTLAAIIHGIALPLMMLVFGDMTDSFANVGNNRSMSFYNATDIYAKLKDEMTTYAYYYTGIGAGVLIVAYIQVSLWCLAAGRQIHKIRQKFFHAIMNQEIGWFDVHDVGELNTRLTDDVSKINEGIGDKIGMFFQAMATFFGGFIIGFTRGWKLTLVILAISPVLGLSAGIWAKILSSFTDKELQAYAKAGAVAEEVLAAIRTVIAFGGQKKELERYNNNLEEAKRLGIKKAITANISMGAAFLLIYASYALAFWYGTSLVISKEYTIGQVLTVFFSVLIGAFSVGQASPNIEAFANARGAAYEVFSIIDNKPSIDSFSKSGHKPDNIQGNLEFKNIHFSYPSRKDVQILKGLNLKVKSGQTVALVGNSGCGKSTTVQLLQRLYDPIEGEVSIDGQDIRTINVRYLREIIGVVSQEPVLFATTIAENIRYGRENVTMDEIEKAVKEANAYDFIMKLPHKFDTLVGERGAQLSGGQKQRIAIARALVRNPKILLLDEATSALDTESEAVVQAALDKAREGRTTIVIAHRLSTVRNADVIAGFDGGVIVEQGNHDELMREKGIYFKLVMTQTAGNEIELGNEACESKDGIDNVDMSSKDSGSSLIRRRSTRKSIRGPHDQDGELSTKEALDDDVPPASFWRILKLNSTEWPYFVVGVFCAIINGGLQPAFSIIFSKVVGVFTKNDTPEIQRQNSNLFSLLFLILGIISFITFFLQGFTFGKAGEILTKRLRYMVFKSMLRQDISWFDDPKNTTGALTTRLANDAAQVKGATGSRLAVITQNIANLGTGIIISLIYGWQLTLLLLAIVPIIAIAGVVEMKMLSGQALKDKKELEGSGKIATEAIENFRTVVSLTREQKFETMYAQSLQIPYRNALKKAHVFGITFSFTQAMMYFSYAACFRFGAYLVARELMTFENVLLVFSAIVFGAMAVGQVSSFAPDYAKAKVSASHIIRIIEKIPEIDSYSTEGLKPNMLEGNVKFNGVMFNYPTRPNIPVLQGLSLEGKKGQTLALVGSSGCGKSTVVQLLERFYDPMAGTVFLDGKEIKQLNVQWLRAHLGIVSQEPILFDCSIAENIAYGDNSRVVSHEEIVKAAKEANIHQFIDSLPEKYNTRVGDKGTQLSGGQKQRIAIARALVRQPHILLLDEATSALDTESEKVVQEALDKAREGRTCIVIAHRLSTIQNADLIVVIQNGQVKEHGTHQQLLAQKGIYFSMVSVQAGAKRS", "assay": "Bidirectional transport of uric acid in LLC-PK1 cells expressing rMdr1a", "format": "in vitro ADME", "details": "data not shown"}, "hBCRP": {"biological_target": "T4, hBCRP (Homo sapiens, UniProt Q9UNQ0)", "T4 construct": "purchased GenoMembrane Inc. (Yokohama, Japan); host or cells: Sf9 cells", "T4 sequence (Q9UNQ0 1-655)": "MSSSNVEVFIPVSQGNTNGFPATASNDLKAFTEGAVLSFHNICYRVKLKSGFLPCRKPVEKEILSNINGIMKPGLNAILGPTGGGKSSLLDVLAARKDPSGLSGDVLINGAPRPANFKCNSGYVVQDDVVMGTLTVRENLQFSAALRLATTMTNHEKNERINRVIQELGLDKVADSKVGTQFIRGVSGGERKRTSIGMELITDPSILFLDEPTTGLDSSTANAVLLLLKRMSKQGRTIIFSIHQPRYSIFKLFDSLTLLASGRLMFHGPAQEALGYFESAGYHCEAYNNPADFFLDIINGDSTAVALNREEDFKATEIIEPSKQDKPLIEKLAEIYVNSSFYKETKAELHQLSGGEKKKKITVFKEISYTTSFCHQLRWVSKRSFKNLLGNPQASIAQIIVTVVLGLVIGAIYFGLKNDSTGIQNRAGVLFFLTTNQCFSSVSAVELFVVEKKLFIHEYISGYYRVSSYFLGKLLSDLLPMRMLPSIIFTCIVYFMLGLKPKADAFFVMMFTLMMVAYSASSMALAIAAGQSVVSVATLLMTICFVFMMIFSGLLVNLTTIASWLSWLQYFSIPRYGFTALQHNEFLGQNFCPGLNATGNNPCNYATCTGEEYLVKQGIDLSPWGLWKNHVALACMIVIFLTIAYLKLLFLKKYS", "assay": "[14C]uric acid uptake by hBCRP-expressing membrane vesicles", "format": "biochemical", "details": "[14C]uric acid 20 µM, 5 min, 37°C, 4 mM ATP or AMP", "experimental": "as §1"}},
  "data": [
    {"smiles": "O=c1[nH]c(=O)c2[nH]c(=O)[nH]c2[nH]1", "note": "[uric acid]", "values": [
      {"measurement": "ATP-dependent uric acid uptake", "setting": "hMRP2", "result": "inactive"},
      {"measurement": "ATP-dependent uric acid uptake", "setting": "rMrp2", "result": "Slight"},
      {"measurement": "Secretory versus absorptive transport of uric acid", "setting": "rMdr1a", "result": "no significant difference"},
      {"measurement": "Uptake of uric acid in the presence of ATP versus AMP", "setting": "hBCRP", "result": "significantly higher"}
    ]}
  ]
}
